Assay results from ChEMBL document CHEMBL1201862, “PubChem BioAssay data set” (2004).
Active and inactive are the calls of the source.

Legend:
[1] = viability loss in HEK293T cells – cell-based, cherry-picks, cytotoxicity control for HIV Vif inhibitor project, dose response (AID 652208); type: functional
[2] = target: T1, Apoptotic protease-activating factor 1 (Homo sapiens, UniProt O14727); assay: SAR analysis of small molecule Activators of Apaf-1 in a Fluorescent assay.; type: functional; conditions: read-out: EC50_Mean;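 also: caspase-3 cleavage of fluorogenic Rh110 DEVD substrate downstream of apoptosome activation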
T1 sequence (O14727 whole entry): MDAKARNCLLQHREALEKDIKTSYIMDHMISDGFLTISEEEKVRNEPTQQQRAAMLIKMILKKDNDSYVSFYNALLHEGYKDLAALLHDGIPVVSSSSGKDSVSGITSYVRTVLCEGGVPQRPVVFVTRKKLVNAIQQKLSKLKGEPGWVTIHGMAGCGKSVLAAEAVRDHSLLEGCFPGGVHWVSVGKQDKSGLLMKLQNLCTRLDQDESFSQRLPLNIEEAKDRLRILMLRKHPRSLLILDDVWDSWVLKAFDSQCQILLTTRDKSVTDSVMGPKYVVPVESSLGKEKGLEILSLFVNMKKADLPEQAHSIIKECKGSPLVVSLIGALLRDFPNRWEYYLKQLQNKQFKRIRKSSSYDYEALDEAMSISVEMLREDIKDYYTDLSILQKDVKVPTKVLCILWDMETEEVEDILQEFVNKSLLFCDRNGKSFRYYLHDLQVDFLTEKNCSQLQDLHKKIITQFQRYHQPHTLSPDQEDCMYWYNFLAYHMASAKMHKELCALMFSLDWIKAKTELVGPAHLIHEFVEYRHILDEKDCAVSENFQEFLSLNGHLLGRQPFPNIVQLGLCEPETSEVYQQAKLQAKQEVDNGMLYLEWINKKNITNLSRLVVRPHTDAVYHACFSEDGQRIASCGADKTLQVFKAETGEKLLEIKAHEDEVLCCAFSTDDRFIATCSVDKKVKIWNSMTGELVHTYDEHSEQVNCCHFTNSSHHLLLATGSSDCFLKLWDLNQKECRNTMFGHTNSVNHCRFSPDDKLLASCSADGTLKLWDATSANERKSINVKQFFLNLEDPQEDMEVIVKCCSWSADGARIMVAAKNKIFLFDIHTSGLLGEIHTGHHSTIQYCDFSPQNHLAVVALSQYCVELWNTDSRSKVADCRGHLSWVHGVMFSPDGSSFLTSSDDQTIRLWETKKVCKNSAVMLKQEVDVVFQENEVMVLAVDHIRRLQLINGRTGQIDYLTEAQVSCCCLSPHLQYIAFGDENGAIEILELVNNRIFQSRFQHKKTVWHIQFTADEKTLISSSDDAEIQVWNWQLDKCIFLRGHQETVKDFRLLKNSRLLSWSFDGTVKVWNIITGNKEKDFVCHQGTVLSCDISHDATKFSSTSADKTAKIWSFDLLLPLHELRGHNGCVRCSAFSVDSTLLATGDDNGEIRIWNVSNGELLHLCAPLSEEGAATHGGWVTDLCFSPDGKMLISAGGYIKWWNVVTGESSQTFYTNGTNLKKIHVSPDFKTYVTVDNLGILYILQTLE

[3] = target: T2, Beta-2 adrenergic receptor (Homo sapiens, UniProt P07550); assay: ADRB2 activation measured by internalization – cell-based, FAP fluorogen, flow cytometry, cherry pick 1, dose response (AID 588763); type: functional
[4] = target: T2, Beta-2 adrenergic receptor; assay: Dose response for HTS for Beta-2AR agonists via FAP method from Powderset3.; type: functional
[5] = target: ALK tyrosine kinase receptor (Homo sapiens, UniProt Q9UM73); type: functional;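 also: ALK tested as one member of a kinase panel screen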
[6] = target: Cyclin-dependent kinase 19 (Homo sapiens, UniProt Q9BWU1); assay: Navigating the Kinome. Panel member name: CDC2L6; type: functional
[7] = system: HEK293; assay: inhibition of NOD1-driven NF-kB reporter – cell-based, luminescence, uHTS, primary screen (AID 1578); type: functional; conditions: Homo sapiens
[8] = system: HEK293; assay: cells; type: functional, cell-based; conditions: Homo sapiens
[9] = system: HEK293; assay: cells; type: functional, cell-based; conditions: Homo sapiens; remark: listed apart in the source
[10] = target: Nucleotide-binding oligomerization domain-containing protein 2 (Homo sapiens, UniProt Q9HC29); assay: inhibition of NOD2-driven NF-kB reporter – cell-based, luminescence, uHTS, HEK293 (AID 1566); type: functional
[11] = system: HEK293; assay: NOD2 signaling inhibitors in MDP-stimulated cells, cell-based, uHTS, luminescence (AID 2001); type: functional; conditions: Homo sapiens
[12] = system: HEK293; assay: cells; type: functional, cell-based; conditions: Homo sapiens; remark: listed apart in the source
[13] = target: Tumor necrosis factor (Homo sapiens, UniProt P01375); assay: analog potency on TNFa NF-kB signaling – cell-based, revised, SAR follow-up (AID 2337); type: functional
[14] = target: T3, Nucleotide-binding oligomerization domain-containing protein 1 (Homo sapiens, UniProt Q9Y239); assay: blockers of NOD1 pathway activity – revised, SAR follow-up (AID 2333); type: functional
T3 sequence (Q9Y239 whole entry): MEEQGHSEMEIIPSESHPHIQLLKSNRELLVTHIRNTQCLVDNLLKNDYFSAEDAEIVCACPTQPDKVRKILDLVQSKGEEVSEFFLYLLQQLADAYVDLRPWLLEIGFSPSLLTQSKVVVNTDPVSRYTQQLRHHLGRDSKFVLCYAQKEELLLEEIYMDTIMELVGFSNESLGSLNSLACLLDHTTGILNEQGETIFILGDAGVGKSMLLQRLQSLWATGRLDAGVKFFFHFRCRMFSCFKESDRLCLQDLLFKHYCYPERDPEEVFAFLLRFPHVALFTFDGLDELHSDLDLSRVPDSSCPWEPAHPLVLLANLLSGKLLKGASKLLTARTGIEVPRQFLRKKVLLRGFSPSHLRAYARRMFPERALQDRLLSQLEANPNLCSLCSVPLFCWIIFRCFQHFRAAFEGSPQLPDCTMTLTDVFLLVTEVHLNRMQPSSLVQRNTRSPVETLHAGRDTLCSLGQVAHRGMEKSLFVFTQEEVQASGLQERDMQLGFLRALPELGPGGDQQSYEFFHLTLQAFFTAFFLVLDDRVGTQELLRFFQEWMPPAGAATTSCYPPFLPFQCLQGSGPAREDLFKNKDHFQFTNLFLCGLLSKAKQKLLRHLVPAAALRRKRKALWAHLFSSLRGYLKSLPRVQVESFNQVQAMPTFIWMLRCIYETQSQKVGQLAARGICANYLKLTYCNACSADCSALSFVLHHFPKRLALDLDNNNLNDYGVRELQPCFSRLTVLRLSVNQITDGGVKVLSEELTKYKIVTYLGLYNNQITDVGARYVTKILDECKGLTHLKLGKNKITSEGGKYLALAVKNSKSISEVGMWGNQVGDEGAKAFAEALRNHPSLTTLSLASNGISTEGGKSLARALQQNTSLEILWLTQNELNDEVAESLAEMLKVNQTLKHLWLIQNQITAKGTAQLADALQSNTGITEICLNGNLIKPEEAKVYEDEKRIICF

[15] = system: HEK293; assay: EBV LMP1 TES2 canonical NF-kB signalling blockers – cell-based, HEK293, luciferase, cherry-pick, dose response (AID 588343); type: functional; conditions: Homo sapiens
[16] = system: INS1; assay: INS-1E survival protection against cytokine death – cell-based, luminescence, retest, dose response (AID 449756); type: functional; conditions: Rattus norvegicus;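 also: cell death triggered by IL-1 beta plus TNF-alpha plus IFN-gamma mixture; protective hits raise ATP signal compared with cytokine alone wells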
[17] = reduction of Shn3 3'UTR-driven luciferase in osteoblasts – cell-based, Clone20 osteoblasts, firefly luciferase, cherry-picked, dose response (AID 624132); type: functional;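 also: firefly luciferase luminescence from reporter carrying the Shn3 3'UTR in osteoblasts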
[18] = target: 26S proteasome non-ATPase regulatory subunit 14 (Homo sapiens, UniProt O00487); assay: inhibition of proteasome subunit RPN11 – biochemical, fluorescence polarization, uHTS hits, confirmation (AID 602368); type: functional
[19] = loss of viability in HepG2 cells – cell-based, CellTiter-Glo, cherry-picked, cytotoxicity control for Shn3 inhibitor project, dose response (AID 624134); type: functional
[20] = non-specific 3'UTR reporter inhibition in Clone20-Shn3RL – cell-based, Renilla luciferase, cherry-picked, counter-screen for Shn3 inhibitor project, dose response (AID 624133); type: functional
[21] = target: 72 kDa type IV collagenase (Homo sapiens, UniProt P08253); assay: Dose Response validation of uHTS RPN11 inhibitor hits using a MMP-2 Fluorescence assay.; type: functional
[22] = target: Prothrombin (Bos taurus, UniProt P00735); assay: thrombin protease inhibitors – biochemical, fluorescence polarization, uHTS hits, dose response (AID 602369); type: functional
[23] = system: HEK293; assay: cells; conditions: Homo sapiens
[24] = target: Adenosylmethionine-8-amino-7-oxononanoate aminotransferase (Mycobacterium tuberculosis, UniProt P9WQ81); assay: Mycobacterium tuberculosis BioA enzyme inhibitor Measured in Biochemical System Using Plate Reader - 2163-02_Inhibitor_Dose_CherryPick_Activity.; type: functional, Mycobacterium tuberculosis UT205
Sequence of Adenosylmethionine-8-amino-7-oxononanoate aminotransferase (P9WQ81 whole entry): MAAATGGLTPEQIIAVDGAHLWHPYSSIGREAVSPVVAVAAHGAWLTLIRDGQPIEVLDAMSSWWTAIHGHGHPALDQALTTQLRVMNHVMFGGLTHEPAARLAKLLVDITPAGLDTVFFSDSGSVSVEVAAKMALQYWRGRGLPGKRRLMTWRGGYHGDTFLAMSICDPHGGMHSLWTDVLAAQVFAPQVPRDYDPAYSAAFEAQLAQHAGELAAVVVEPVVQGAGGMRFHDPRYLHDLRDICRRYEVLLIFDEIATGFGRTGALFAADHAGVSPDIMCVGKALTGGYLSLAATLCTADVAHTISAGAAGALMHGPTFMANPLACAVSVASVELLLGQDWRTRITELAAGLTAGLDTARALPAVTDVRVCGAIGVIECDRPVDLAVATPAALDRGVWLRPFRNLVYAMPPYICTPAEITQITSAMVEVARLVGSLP

T2 sequence (P07550 whole entry): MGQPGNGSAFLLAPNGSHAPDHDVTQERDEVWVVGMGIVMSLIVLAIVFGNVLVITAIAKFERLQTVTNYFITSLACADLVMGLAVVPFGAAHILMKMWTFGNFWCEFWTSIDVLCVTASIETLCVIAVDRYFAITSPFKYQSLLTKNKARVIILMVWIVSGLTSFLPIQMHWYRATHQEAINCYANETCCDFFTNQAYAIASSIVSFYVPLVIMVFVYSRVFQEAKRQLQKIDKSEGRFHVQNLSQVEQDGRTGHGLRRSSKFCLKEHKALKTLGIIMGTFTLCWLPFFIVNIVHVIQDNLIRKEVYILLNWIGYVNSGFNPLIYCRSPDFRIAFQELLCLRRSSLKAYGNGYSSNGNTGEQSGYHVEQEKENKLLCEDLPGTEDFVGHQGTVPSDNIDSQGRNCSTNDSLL
Sequence of ALK tyrosine kinase receptor (Q9UM73 whole entry): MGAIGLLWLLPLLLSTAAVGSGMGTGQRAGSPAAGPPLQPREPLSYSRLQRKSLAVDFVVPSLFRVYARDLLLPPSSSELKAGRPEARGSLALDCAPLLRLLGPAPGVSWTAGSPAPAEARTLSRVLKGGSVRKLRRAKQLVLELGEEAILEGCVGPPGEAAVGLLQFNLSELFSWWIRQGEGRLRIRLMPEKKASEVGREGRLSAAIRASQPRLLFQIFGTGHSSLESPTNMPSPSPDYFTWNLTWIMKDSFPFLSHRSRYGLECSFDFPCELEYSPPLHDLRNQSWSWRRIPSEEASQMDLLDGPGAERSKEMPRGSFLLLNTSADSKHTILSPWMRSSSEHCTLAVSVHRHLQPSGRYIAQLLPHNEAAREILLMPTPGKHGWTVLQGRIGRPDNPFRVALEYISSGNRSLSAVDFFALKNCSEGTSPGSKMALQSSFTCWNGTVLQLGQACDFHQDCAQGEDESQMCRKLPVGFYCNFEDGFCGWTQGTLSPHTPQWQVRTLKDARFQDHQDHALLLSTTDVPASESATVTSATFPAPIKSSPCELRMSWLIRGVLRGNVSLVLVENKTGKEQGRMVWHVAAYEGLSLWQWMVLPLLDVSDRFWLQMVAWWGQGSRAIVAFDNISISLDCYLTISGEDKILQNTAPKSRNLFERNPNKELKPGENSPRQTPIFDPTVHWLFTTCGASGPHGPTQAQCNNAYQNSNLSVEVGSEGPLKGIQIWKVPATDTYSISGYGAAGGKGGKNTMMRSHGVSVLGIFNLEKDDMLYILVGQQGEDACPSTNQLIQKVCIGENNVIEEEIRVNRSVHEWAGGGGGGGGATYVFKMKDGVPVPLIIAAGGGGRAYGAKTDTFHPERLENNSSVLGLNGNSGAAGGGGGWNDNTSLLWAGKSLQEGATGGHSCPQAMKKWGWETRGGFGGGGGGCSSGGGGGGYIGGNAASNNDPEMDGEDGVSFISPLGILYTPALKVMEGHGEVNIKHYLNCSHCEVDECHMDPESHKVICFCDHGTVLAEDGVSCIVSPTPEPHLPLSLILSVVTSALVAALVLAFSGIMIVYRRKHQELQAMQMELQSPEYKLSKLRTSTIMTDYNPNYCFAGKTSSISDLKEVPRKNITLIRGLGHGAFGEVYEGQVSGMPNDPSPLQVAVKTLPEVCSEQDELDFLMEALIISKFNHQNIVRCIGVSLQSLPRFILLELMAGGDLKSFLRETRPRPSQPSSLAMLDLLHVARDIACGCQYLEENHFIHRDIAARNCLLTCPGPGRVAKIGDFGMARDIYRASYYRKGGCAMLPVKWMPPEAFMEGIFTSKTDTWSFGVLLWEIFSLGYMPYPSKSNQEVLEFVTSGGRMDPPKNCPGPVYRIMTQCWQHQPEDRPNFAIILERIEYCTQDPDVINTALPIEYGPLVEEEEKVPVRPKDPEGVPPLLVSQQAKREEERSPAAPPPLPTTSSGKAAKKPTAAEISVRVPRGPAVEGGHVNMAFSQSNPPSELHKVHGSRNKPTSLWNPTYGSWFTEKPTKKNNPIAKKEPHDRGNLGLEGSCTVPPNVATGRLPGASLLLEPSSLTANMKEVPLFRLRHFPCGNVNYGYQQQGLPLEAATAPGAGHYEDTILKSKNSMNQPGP
Sequence of Nucleotide-binding oligomerization domain-containing protein 2 (Q9HC29 whole entry, the tested form may be a part): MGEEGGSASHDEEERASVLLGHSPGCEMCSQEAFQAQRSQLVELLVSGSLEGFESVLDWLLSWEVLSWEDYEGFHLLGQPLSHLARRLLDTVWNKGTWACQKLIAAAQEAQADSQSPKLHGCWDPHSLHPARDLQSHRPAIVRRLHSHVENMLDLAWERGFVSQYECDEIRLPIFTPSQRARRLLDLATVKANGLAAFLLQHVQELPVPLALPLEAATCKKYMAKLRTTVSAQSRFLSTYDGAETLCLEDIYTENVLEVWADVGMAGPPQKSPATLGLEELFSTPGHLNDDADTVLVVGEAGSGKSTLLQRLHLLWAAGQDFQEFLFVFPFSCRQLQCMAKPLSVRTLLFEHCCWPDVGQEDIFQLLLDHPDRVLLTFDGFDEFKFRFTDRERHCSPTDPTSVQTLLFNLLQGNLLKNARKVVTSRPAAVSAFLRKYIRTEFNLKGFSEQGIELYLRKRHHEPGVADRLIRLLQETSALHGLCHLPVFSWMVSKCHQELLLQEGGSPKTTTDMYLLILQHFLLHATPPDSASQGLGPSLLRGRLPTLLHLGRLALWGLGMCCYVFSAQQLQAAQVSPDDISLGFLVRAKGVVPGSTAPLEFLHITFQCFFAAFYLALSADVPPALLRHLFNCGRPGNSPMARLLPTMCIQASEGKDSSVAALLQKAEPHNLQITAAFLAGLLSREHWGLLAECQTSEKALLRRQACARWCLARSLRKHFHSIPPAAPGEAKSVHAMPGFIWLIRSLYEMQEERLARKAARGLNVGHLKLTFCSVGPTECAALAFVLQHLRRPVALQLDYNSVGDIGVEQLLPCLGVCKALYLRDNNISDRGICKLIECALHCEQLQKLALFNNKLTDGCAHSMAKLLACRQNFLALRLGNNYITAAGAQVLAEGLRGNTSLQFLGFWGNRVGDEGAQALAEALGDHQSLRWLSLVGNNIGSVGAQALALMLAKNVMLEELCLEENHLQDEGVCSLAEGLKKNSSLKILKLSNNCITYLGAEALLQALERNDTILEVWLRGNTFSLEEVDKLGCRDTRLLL
Sequence of 26S proteasome non-ATPase regulatory subunit 14 (O00487 whole entry): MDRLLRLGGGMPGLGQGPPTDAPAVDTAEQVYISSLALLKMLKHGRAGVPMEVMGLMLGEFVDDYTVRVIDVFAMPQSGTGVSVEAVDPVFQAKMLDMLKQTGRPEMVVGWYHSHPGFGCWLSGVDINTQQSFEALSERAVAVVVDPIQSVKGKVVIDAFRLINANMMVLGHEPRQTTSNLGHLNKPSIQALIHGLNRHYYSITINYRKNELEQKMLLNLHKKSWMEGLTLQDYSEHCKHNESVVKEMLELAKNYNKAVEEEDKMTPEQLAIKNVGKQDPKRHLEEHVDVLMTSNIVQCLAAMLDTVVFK
Sequence of 72 kDa type IV collagenase (P08253 whole entry): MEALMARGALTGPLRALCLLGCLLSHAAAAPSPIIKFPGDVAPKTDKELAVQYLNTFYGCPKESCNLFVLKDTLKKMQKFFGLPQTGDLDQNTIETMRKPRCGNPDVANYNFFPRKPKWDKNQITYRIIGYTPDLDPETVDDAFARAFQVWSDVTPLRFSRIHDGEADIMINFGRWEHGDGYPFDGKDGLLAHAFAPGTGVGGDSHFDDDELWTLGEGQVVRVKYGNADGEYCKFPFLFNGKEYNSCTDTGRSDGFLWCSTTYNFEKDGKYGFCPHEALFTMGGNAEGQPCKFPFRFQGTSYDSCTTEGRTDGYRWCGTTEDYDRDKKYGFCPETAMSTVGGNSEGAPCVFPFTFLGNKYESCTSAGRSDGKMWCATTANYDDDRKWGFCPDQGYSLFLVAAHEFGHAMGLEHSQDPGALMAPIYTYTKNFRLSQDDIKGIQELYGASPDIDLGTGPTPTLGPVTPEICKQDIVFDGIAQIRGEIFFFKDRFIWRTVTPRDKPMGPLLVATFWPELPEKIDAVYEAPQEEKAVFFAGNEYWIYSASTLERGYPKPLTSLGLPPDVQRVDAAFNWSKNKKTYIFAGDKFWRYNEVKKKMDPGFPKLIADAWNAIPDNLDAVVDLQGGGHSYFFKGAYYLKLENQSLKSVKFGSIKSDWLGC
Sequence of Tumor necrosis factor (P01375 whole entry, the tested form may be a part): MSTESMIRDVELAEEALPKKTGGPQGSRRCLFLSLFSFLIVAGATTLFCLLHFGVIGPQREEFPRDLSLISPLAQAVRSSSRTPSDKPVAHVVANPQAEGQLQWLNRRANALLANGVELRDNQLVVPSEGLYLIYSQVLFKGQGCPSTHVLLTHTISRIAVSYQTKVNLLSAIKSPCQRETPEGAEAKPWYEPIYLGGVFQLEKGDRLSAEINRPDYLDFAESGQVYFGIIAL

COc1ccc(S(=O)(=O)Nc2cccc3ccc(O)cc23)cc1
AC50 [1]: > 52 µM (inactive)

COC(=O)[C@@H]1COC(c2ccc(F)cc2F)=N1
EC50 [2]: > 100 µM (inactive)

CC(=O)Nc1ccc(S(=O)(=O)N2CCC(Oc3ccc(-n4cnnn4)cc3)CC2)cc1
EC50 [3]: 0.126 µM (active) | EC50 [4]: 0.0366 µM (active)

Cc1nn(-c2nc3ccccc3[nH]2)c(O)c1C1OC(=O)c2ccccc21 (centres undefined)
Ki [5]: 0.2 µM (active) | Ki [6]: 2 µM (active)

Cc1ccc(NC(=O)C2CCN(S(=O)(=O)c3ccc4c(c3)NC(=O)C(C)S4)CC2)cc1Cl (centres undefined)
EC50 [7]: 5.35 µM (active) | IC50 [8]: 2.72 µM (active) | IC50 [9]: 4.25 µM (active) | EC50 [10]: 8.36 µM (active) | IC50 [11]: 2.94 µM (inactive) | IC50 [12]: > 20 µM (inactive) | IC50 [13]: 2.84 µM (active) | IC50 [14]: 2.87 µM (active) | AC50 [15]: 15.3 µM (active) | AC50 [16]: 3.7 µM (active) | AC50 [17]: 2.83 µM (active) | IC50 [18]: 49.4 µM (active) | AC50 [19]: 6.82 µM (active) | AC50 [20]: 2.48 µM (active) | IC50 [21]: > 100 µM (inactive) | IC50 [22]: 46 µM (active) | IC50 [23]: 5.08 µM (active)

N#C[C@H]1[C@@H](c2ccccc2)[C@@H](CO)N1C(=O)Nc1cccc(F)c1
AC50 [24]: 1.76 µM (active)
